According to patent publication US20260226073A1 (AURIGENE ONCOLOGY LIMITED, priority 2023, published 2026):

Molecular target: T1, human recombinant CBL-b (human Biotin CBL-b recombinant protein a.a. 39-426) (Homo sapiens, UniProt Q13191)
T1 construct: human Biotin CBL-b recombinant protein a.a; 39-426; Biotin (biotinylated); made in house
Assay: Biochemical assay for CBL-b inhibition (ligand displacement TR-FRET)
Format: binding
Settings: 50 nM CBL-b, 0.3 μM Bodipy FL-Probe, read-out: IC50 (CBL-b inhibition, group)
Description: The inhibitory activity of the test compounds was assessed by Ligand displacement TR-FRET assay. The human recombinant CBL-b (human Biotin CBL-b recombinant protein a.a. 39-426; synthesised in-house) was diluted in enzyme assay buffer (20 mM HEPES, 150 mM NaCl, 0.01% Triton X, 0.01% BSA, 0.5 mM TCEP) in a 10 μl volume and plated in 384-well plates (Cat #781075, Greiner) to a final concentration of 50 nM. The enzyme/compound mixture was incubated at RT for 60 min. The Bodipy FL-Probe described in WO 2020/210508 (synthesized in-house) diluted in enzyme assay buffer was added to the plate and incubated for 60 min RT, the final probe concentration was 0.3 μM. After 60 min incubation, 10 μl of detection mix (Terbium Streptavidin, (Cat #PV3576, Invitrogen) diluted in 1× Lance buffer) was added and incubated for 60 min at room temperature. Time-resolved fluorescence (excitation, 320 nm; emission donor, 615 nm; emission acceptor, 665 nm) was monitored by using 2030 multilabel reader Victor5 (PerkinElmer). The IC50 (concentration for half maximal inhibition) and % maximum inhibition of the compounds were estimated by fitting the dose response data to a sigmoidal curve fitting equation using Graph pad Prism software V. 8.

T1 sequence (Q13191 39-426): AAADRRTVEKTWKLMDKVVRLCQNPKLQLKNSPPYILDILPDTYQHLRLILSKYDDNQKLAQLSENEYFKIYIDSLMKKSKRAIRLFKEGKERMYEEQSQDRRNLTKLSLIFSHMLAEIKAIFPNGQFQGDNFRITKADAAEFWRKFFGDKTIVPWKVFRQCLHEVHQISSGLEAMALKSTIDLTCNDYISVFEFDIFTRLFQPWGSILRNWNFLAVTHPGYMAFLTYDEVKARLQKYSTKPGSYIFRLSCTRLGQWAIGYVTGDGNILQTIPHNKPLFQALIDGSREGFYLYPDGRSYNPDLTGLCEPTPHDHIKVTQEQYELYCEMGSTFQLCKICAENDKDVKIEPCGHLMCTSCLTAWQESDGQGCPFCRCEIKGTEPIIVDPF

SMILES	IC50
C[C@@H]1CN(Cc2cc(N3Cc4ccc(C5(Cc6nncn6C)COC5)cc4C3=O)nc(C(F)(F)F)c2)CCN1 [Compound 96, (R)-6-(3-((4-Methyl-4H-1,2,4-triazol-3-yl)methyl)oxetan-3-yl)-2-(4-((3-methylpiperazin-1-yl)methyl)-6-(trifluoromethyl)pyridin-2-yl)isoindolin-1-one]	300 to 5000 nM
C[C@@H]1CN(Cc2cc(N3Cc4ccc(C5(Cc6nncn6C)COC5)cc4C3=O)nc(C(F)(F)F)c2)CCN1C [Compound 97, (R)-2-(4-((3,4-Dimethylpiperazin-1-yl)methyl)-6-(trifluoromethyl)pyridin-2-yl)-6-(3-((4-methyl-4H-1,2,4-triazol-3-yl)methyl)oxetan-3-yl)isoindolin-1-one]	300 to 5000 nM
C[C@@H]1CN(Cc2cc(N3Cc4ccc(C5(Cc6nncn6C)COC5)cc4C3=O)nc(C(F)(F)F)c2)C[C@H](C)N1 [Compound 98, 2-(4-(((3R,5S)-3,5-Dimethylpiperazin-1-yl)methyl)-6-(trifluoro-methyl)pyridin-2-yl)-6-(3-((4-methyl-4H-1,2,4-triazol-3-yl)methyl)oxetan-3-yl)-isoindolin-1-one]	300 to 5000 nM
Cn1cnnc1CC1(c2ccc3c(c2)C(=O)N(c2cc(CNCCOCCOCCOCCN)cc(Cl)n2)C3)COC1 [Compound 99, 2-(4-(13-Amino-5,8,11-trioxa-2-azatridecyl)-6-chloropyridin-2-yl)-6-(3-((4-methyl-4H-1,2,4-triazol-3-yl)methyl)oxetan-3-yl)isoindolin-1-one]	300 to 5000 nM
CC(C)NCC(O)c1cc(N2Cc3ccc(C4(Cc5nncn5C)COC4)cc3C2=O)cc(C(F)(F)F)c1 (stereo not drawn) [Compound 100, 2-(3-(1-Hydroxy-2-(isopropylamino)ethyl)-5-(trifluoromethyl)-phenyl)-6-(3-((4-methyl-4H-1,2,4-triazol-3-yl)methyl)oxetan-3-yl)isoindolin-1-one]	300 to 5000 nM
C[C@H]1CCCN(Cc2cc(Cl)nc(N3Cc4ccc(-c5c(-c6nncn6C)cnn5C)cc4C3=O)c2)C1 [Compound 114, (S)-2-(6-Chloro-4-((3-methylpiperidin-1-yl)methyl)pyridin-2-yl)-6-(1-methyl-4-(4-methyl-4H-1,2,4-triazol-3-yl)-1H-pyrazol-5-yl)isoindolin-1-one]	300 to 5000 nM
C[C@H]1CCCN(Cc2cc(Cl)nc(N3Cc4ccc(-c5ccccc5-c5nncn5C)cc4C3=O)c2)C1 [Compound 118, (S)-2-(6-Chloro-4-((3-methylpiperidin-1-yl)methyl)pyridin-2-yl)-6-(2-(4-methyl-4H-1,2,4-triazol-3-yl)phenyl)isoindolin-1-one]	< 80 nM
Cn1cc2c(n1)CCCN2Cc1cc(N2Cc3ccc(C4(Cc5nncn5C)COC4)cc3C2=O)nc(C(F)(F)F)c1 [Compound 128, 2-(4-((2-Methyl-2,5,6,7-tetrahydro-4H-pyrazolo[4,3-b]pyridin-4-yl)methyl)-6-(trifluoromethyl)pyridin-2-yl)-6-(3-((4-methyl-4H-1,2,4-triazol-3-yl)methyl)oxetan-3-yl)isoindolin-1-one]	300 to 5000 nM
Cc1nc(CNCc2cc(Cl)nc(N3Cc4ccc(C5(Cc6nncn6C)COC5)cc4C3=O)c2)cs1 [Compound 129, 2-(6-Chloro-4-((((2-methylthiazol-4-yl)methyl)amino)methyl)-pyridin-2-yl)-6-(3-((4-methyl-4H-1,2,4-triazol-3-yl)methyl)oxetan-3-yl)isoindolin-1-one]	80 to 300 nM
Cn1cnnc1CC1(c2ccc3c(c2)C(=O)N(c2cc(CNCC4(F)CC4)cc(Cl)n2)C3)COC1 [Compound 130, 2-(6-Chloro-4-((((1-fluorocyclopropyl)methyl)amino)methyl)-pyridin-2-yl)-6-(3-((4-methyl-4H-1,2,4-triazol-3-yl)methyl)oxetan-3-yl)isoindolin-1-one]	80 to 300 nM
Cc1cc(CO)cc(N2Cc3ccc(-c4ccc(F)cc4-c4nncn4C)cc3C2=O)n1 [Compound 136, 6-(4-Fluoro-2-(4-methyl-4H-1,2,4-triazol-3-yl)phenyl)-2-(4-(hydroxymethyl)-6-methylpyridin-2-yl)isoindolin-1-one]	300 to 5000 nM
COC1(CNCc2cc(C)nc(N3Cc4ccc(-c5ccc(F)cc5-c5nncn5C)cc4C3=O)c2)CC1 [Compound 137, 6-(4-Fluoro-2-(4-methyl-4H-1,2,4-triazol-3-yl)phenyl)-2-(4-((((1-methoxycyclopropyl)methyl)amino)methyl)-6-methylpyridin-2-yl)isoindolin-1-one]	80 to 300 nM
C[C@H]1CCCN(Cc2cc(N3Cc4ccc(C5(Cc6nncn6C)COC5)cc4C3=O)nc(C(F)(F)F)c2)[C@H]1C [Compound 138]	300 to 5000 nM
C[C@H]1CCCN(Cc2ccnc(N3Cc4ccc(C5(Cc6nncn6C)COC5)cc4C3=O)c2)C1 [Compound 149]	80 to 300 nM
CC(Cc1nncn1C)c1cnc2c(c1)C(=O)N(c1cc(CN3CCC[C@H](C)C3)cc(Cl)n1)C2 (stereo partly drawn) [Compound 150]	80 to 300 nM
Cn1cnnc1CC1(c2ccc3c(c2)C(=O)N(c2cc(CNCC4CCCCC4)cc(Cl)n2)C3)COC1 [Compound 153]	80 to 300 nM
C[C@H]1CCCN(Cc2cc(Cl)nc(N3Cc4ccc(CCc5nncn5C)cc4C3=O)c2)C1 [Compound 154]	80 to 300 nM

SMILES	IC50
CC(C)C(Cc1nncn1C)c1ccc2c(c1)C(=O)N(c1cc(CN3CCC[C@H](C)C3)cc(Cl)n1)C2 (stereo partly drawn) [Compound 165]	300 to 5000 nM
C[C@H]1CCCN(Cc2cc(Cl)nc(N3Cc4ccc(C(Cc5nncn5C)C5CCC5)cc4C3=O)c2)C1 (stereo partly drawn) [Compound 173]	300 to 5000 nM
Cn1cnnc1CC1(c2ccc3c(c2)C(=O)N(c2cc(CN4CCCC(O)CC4)cc(Cl)n2)C3)COC1 (stereo not drawn) [Compound 174]	80 to 300 nM
C[C@@H]1CN(Cc2cc(Cl)nc(N3Cc4ccc(C5(Cc6nncn6C)COC5)cc4C3=O)c2)C[C@@H](C)O1 [Compound 177]	300 to 5000 nM
Cn1cnnc1CC1(c2ccc3c(c2)C(=O)N(c2cc(CNCC4COC4)cc(Cl)n2)C3)COC1 [Compound 183]	80 to 300 nM
Cn1cnnc1CC1(c2ccc3c(c2)C(=O)N(c2cc(CN4CCC(C)(F)C4)cc(Cl)n2)C3)COC1 (stereo not drawn) [Compound 184]	80 to 300 nM
Cc1nc(CNCC2CC2)cc(N2Cc3ccc(C4(Cc5nncn5C)COC4)cc3C2=O)n1 [Compound 186]	80 to 300 nM
C[C@@H]1CN(Cc2cc(Cl)nc(N3Cc4ccc(C5(Cc6nncn6C)COC5)cc4C3=O)c2)C[C@H](C)O1 [Compound 191]	300 to 5000 nM
Cn1cnnc1CC1(c2ccc3c(c2)C(=O)N(c2cc(CN4CCC5OCCC54)cc(Cl)n2)C3)COC1 (stereo not drawn) [Compound 192]	300 to 5000 nM
Cn1cnnc1CC1(c2ccc3c(c2)C(=O)N(c2cc(CNCc4nccs4)cc(Cl)n2)C3)COC1 [Compound 194]	80 to 300 nM
CC1CCCN1Cc1cc(Cl)nc(N2Cc3ccc(C4(Cc5nncn5C)COC4)cc3C2=O)c1 (stereo not drawn) [Compound 200]	300 to 5000 nM
Cn1cnnc1CC1(c2ccc3c(c2)C(=O)N(c2cc(CNCc4ccccn4)cc(Cl)n2)C3)COC1 [Compound 203]	80 to 300 nM
Cn1cnnc1CC1(c2ccc3c(c2)C(=O)N(c2cc(CNCC4(C(F)(F)F)CC4)cc(Cl)n2)C3)COC1 [Compound 204]	80 to 300 nM
Cn1cnnc1CC1(c2ccc3c(c2)C(=O)N(c2cc(CNCc4ncco4)cc(Cl)n2)C3)COC1 [Compound 208]	300 to 5000 nM
Cn1cc(CNCc2cc(Cl)nc(N3Cc4ccc(C5(Cc6nncn6C)COC5)cc4C3=O)c2)cn1 [Compound 211]	300 to 5000 nM
Cn1ccc(CNCc2cc(Cl)nc(N3Cc4ccc(C5(Cc6nncn6C)COC5)cc4C3=O)c2)n1 [Compound 212]	300 to 5000 nM
